Among the data in ChEMBL document CHEMBL1131794, “The synthesis and evaluation of 6-alkylidene-2'beta-substituted penam sulfones as beta-lactamase inhibitors” (Bioorg Med Chem Lett, 1999) are IC50 and MIC values, retold here.

As a reminder, the IC50 is the concentration needed to halve the response being measured. By MIC is commonly meant the lowest concentration found to suppress growth.

For one experiment, the target named is Beta-lactamase TEM (Escherichia coli, UniProt P62593). Kind of experiment: Inhibitory activity against serine Beta-lactamase TEM derived from […]. Format: single protein.
Experiment [1] has as its target T1, Beta-lactamase (Staphylococcus aureus, UniProt P00807). Briefly: Inhibitory activity against serine Beta-lactamase derived from Staphylococcus aureus.
Experiment [2] addresses T1, Beta-lactamase. Kind of experiment: Inhibitory activity against serine beta-lactamase, PC1 (class A) derived from Staphylococcus aureus.
Experiment [3] relates to Escherichia coli. Briefly: In vitro synergistic activity against Escherichia coli ATCC 35218 (TEM-1). Format: functional.
In another experiment the test system is Aeromonas sobria. Briefly: In vitro synergistic activity against Aeromonas sobria (Asb A, OXA-12, Asb M). Type of experiment: functional.
For experiment [4], the system named is Escherichia coli. Kind of experiment: In vitro synergistic activity against Escherichia coli GC6267 clinical isolate. Format: functional.
For experiment [5], the system named is Escherichia coli. Briefly: In vitro synergistic activity against Escherichia coli GC6265 (TEM-1). Type of experiment: functional.
The subject of experiment [6] is Escherichia coli. Kind of experiment: In vitro synergistic activity against Escherichia coli C600N (no beta-lactamase). Format: functional.
The test system of experiment [7] is Escherichia coli. Kind of experiment: In vitro synergistic activity against Escherichia coli 4100 (no beta-lactamase). Type of experiment: functional.
Experiment [8] concerns Escherichia coli. Briefly: In vitro synergistic activity against Escherichia coli C600N + (PSE-1). Type of experiment: functional.
The subject of experiment [9] is Klebsiella pneumoniae. Kind of experiment: In vitro synergistic activity against Klebsiella pneumoniae KC2 (TEM-10). Format: functional.
For experiment [10], the system named is Stenotrophomonas maltophilia. Briefly: In vitro synergistic activity against Stenotrophomonas maltophilia 1712(L1). Type of experiment: functional.
A further experiment relates to Serratia marcescens. Kind of experiment: In vitro synergistic activity against Serratia marcescens GC 4132 (Amp C). Format: functional.
Experiment [11] relates to Escherichia coli. Kind of experiment: In vitro synergistic activity against Escherichia coli C600N + (P99). Format: functional.
The subject of experiment [12] is Enterobacter cloacae. Briefly: In vitro synergistic activity against Enterobacter cloacae SC12629 (AmpC inducible). Format: functional.
Experiment [13] concerns Escherichia coli. Briefly: In vitro synergistic activity against Escherichia coli 300 + (TEM-1). Format: functional.
Experiment [14] concerns Escherichia coli. Kind of experiment: In vitro synergistic activity against Escherichia coli GC 6266 clinical isolate. Format: functional.
In experiment [15] the test system is Escherichia coli. Briefly: In vitro synergistic activity against Escherichia coli C600N + (SHV-4). Type of experiment: functional.
For experiment [16], the system named is Escherichia coli. Briefly: In vitro synergistic activity against Escherichia coli C600N + (ampR ampC). Type of experiment: functional.
For experiment [17], the system named is Escherichia coli. Briefly: In vitro synergistic activity against Escherichia coli 300 + (ampR ampC). Format: functional.
For experiment [18], the system named is Escherichia coli. Kind of experiment: In vitro synergistic activity against Escherichia coli C600N + (Imi-1). Format: functional.
Experiment [19] deals with Escherichia coli. Kind of experiment: In vitro synergistic activity against Escherichia coli C600N + (IRT-2). Type of experiment: functional.
A further experiment deals with Pseudomonas aeruginosa. Kind of experiment: In vitro synergistic activity against Pseudomonas aeruginosa Ps505A1 (AmpC derepressed). Type of experiment: functional.
Experiment [20] has as its system Klebsiella pneumoniae. Briefly: In vitro synergistic activity against Klebsiella pneumoniae GC 6269 clinical isolate. Type of experiment: functional.
Experiment [21] deals with Escherichia coli. Kind of experiment: In vitro synergistic activity against Escherichia coli C600N + (OXA-10) {PSE-2}. Type of experiment: functional.
Experiment [22] deals with Klebsiella pneumoniae. Briefly: In vitro synergistic activity against Klebsiella pneumoniae (ACT-1 + 3 blas, IPM=S). Format: functional.
The subject of experiment [23] is Escherichia coli. Kind of experiment: In vitro synergistic activity against Escherichia coli C600N + (SHV-1). Format: functional.
The subject of experiment [24] is Escherichia coli. Briefly: In vitro synergistic activity against Escherichia coli ATCC 25922 (no beta-lactamase). Type of experiment: functional.
The test system of experiment [25] is Escherichia coli. Briefly: In vitro synergistic activity against Escherichia coli C600N + (TEM-10). Type of experiment: functional.
In another experiment the test system is Staphylococcus aureus. Briefly: In vitro synergistic activity against Staphylococcus aureus (PC1). Format: functional.
In experiment [26] the test system is Escherichia coli. Briefly: In vitro synergistic activity against Escherichia coli C600N + (TEM-1). Format: functional.
The test system of experiment [27] is Escherichia coli. Briefly: In vitro synergistic activity against Escherichia coli C600N + (MIR-1). Format: functional.
In experiment [28] the test system is Escherichia coli. Kind of experiment: In vitro synergistic activity against Escherichia coli 4100 + (CCRA). Format: functional.
The test system of the next experiment is Klebsiella aerogenes. Briefly: In vitro synergistic activity against Enterobacter aerogenes GC 6268 clinical isolate. Type of experiment: functional.
The test system of experiment [29] is Escherichia coli. Kind of experiment: In vitro synergistic activity against Escherichia coli C600N + (Sme-1). Type of experiment: functional.
Experiment [30] deals with Enterobacter cloacae. Briefly: In vitro synergistic activity against Enterobacter cloacae (Imi-1+AmpC). Format: functional.
The test system of experiment [31] is Escherichia coli. Briefly: In vitro synergistic activity against Escherichia coli C600N + (L1). Format: functional.

Chain of Beta-lactamase TEM (P62593 whole entry): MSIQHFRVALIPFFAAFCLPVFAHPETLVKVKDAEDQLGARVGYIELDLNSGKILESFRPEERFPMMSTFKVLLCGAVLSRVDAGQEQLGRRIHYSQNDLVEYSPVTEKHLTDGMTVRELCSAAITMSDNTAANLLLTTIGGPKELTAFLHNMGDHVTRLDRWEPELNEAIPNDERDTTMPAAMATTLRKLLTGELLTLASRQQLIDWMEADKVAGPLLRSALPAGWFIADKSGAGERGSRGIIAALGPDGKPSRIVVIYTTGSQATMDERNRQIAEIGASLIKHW
T1 sequence (P00807 whole entry): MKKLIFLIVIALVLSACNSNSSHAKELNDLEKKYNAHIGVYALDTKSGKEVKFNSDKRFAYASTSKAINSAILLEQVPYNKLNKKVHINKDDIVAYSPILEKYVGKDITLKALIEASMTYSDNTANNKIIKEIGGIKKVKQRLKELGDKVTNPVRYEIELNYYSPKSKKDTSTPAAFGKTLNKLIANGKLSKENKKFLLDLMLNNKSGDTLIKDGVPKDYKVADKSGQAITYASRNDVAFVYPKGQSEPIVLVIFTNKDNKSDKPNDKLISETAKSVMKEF

On to `C[C@]1(COC(=O)Cc2ccccc2)[C@H](C(=O)O)N2C(=O)/C(=C/C(=O)O)C2S1(=O)=O` (stereo partly drawn), for which the IC50 against Beta-lactamase TEM was found to be 0.0154 µM; on Beta-lactamase [1] it was 0.54 µM; against Beta-lactamase [2], 579 µM.

With `COC(=O)/C=C1/C(=O)N2C1S(=O)(=O)[C@@](C)(CCl)[C@@H]2C(=O)O` (stereo partly drawn), the IC50 at Beta-lactamase [1] was 13.9 µM; against Beta-lactamase [2] it was 432 µM.

In the case of `Cn1nnnc1SCC(=O)OC[C@@]1(C)[C@H](C(=O)O)N2C(=O)/C(=C/C(=O)O)C2S1(=O)=O` (stereo partly drawn), the IC50 amounted to 0.233 µM on Beta-lactamase TEM and 0.64 µM against Beta-lactamase [1].

Regarding `CC(=O)OC[C@@]1(C)[C@H](C(=O)O)N2C(=O)/C(=C/c3ccccn3)C2S1(=O)=O` (stereo partly drawn), the values for the IC50 against Beta-lactamase TEM, at Beta-lactamase [1] and at Beta-lactamase [2] were 0.004 µM, 0.062 µM and 0.66 µM, respectively.

Turning to `C[C@]1(COC(=O)Cc2ccccc2)[C@H](C(=O)O)N2C(=O)/C(=C/c3ccccn3)C2S1(=O)=O` (stereo partly drawn), the IC50 at Beta-lactamase TEM stood at 0.04 µM; against Beta-lactamase [1], 0.001 µM; at Beta-lactamase [2], 0.39 µM.

With `CCN1CCN(C(=O)NC(C(=O)N[C@@H]2C(=O)N3[C@@H]2SC(C)(C)[C@@H]3C(=O)[O-])c2ccccc2)C(=O)C1=O.C[C@]1(Cn2ccnn2)C(C(=O)[O-])N2C(=O)C[C@H]2S1(=O)=O.[Na+].[Na+]` (stereo partly drawn), the MIC was 1 mg/L in the experiment on Escherichia coli [3]; 64 mg/L in the experiment with Aeromonas sobria; 16 mg/L with Escherichia coli [4]; 4 mg/L in the experiment on Escherichia coli [5]; 2 mg/L in the experiment with Escherichia coli [6]; less than 0.06 mg/L in the experiment on Escherichia coli [7]. Besides, the MIC with Escherichia coli [8] was 1 mg/L; in the experiment on Klebsiella pneumoniae [9], 2 mg/L; in experiment [10] it was more than 64 mg/L; in the experiment with Serratia marcescens, 32 mg/L; in the experiment with Escherichia coli [11] it was 8 mg/L; with Enterobacter cloacae [12], more than 64 mg/L. In addition, the MIC came out at 4 mg/L with Escherichia coli [13]; 16 mg/L in the experiment on Escherichia coli [14]; 2 mg/L in the experiment with Escherichia coli [15]; 8 mg/L in the experiment with Escherichia coli [16]; 4 mg/L in the experiment on Escherichia coli [17]; 16 mg/L in the experiment with Escherichia coli [18]. Further, the MIC was 8 mg/L in the experiment with Escherichia coli [19]; 16 mg/L with Pseudomonas aeruginosa; 8 mg/L in the experiment on Klebsiella pneumoniae [20]; 2 mg/L in the experiment on Escherichia coli [21]; 32 mg/L in the experiment on Klebsiella pneumoniae [22]; 2 mg/L in the experiment on Escherichia coli [23]. Besides, the MIC in the experiment on Escherichia coli [24] was 2 mg/L; in the experiment with Escherichia coli [25], 2 mg/L; with Staphylococcus aureus it was 1 mg/L; in the experiment with Escherichia coli [26] it was 4 mg/L; in the experiment with Escherichia coli [27], 8 mg/L; in the experiment with Escherichia coli [28], more than 64 mg/L. For the same molecule, the MIC is 32 mg/L in the experiment with Klebsiella aerogenes, 8 mg/L in the experiment on Escherichia coli [29], 16 mg/L in the experiment with Enterobacter cloacae [30] and more than 64 mg/L in the experiment with Escherichia coli [31].

For the molecule `C[C@]1(COC(=O)Cc2ccc(O)c(O)c2)[C@H](C(=O)[O-])N2C(=O)/C(=C/c3ccccn3)C2S1(=O)=O.[Na+]` (stereo partly drawn), the MIC with Escherichia coli [3], in the experiment on Aeromonas sobria, in the experiment with Escherichia coli [4], in the experiment on Escherichia coli [5], with Escherichia coli [7] and with Escherichia coli [8] was more than 64 mg/L throughout. Further, the MIC (with Klebsiella pneumoniae [9]; in experiment [10]; with Serratia marcescens; with Escherichia coli [11]; in the experiment on Enterobacter cloacae [12]; with Escherichia coli [13]) was more than 64 mg/L each time. For the same molecule, the MIC with Escherichia coli [14], in the experiment with Escherichia coli [16], in the experiment on Escherichia coli [17], in the experiment on Escherichia coli [18], in the experiment on Escherichia coli [19] and in the experiment on Pseudomonas aeruginosa was more than 64 mg/L throughout. The MIC in the experiment with Klebsiella pneumoniae [20], in the experiment on Klebsiella pneumoniae [22], in the experiment on Escherichia coli [24], in the experiment on Staphylococcus aureus, in the experiment on Escherichia coli [27] and in the experiment on Escherichia coli [28] was more than 64 mg/L in each case. Also, the MIC in the experiment on Klebsiella aerogenes, in the experiment on Escherichia coli [29], in the experiment with Enterobacter cloacae [30] and in the experiment on Escherichia coli [31] was more than 64 mg/L throughout. Further, the IC50 worked out at 0.06 µM against Beta-lactamase TEM, 0.026 µM against Beta-lactamase [1] and 0.7 µM against Beta-lactamase [2].

On to `CC(=O)OC[C@@]1(C)[C@H](C(=O)O)N2C(=O)/C(=C/C(N)=O)C2S1(=O)=O` (stereo partly drawn), for which the IC50 at Beta-lactamase TEM came to 0.31 µM; at Beta-lactamase [1], 8.48 µM; against Beta-lactamase [2], 2.21 µM.

Consider `C[C@]1(COC(=O)Cc2ccc(O)c(O)c2)[C@H](C(=O)O)N2C(=O)/C(=C/C(=O)O)C2S1(=O)=O` (stereo partly drawn), for which the IC50 on Beta-lactamase [1] came out at 0.37 µM; at Beta-lactamase [2] it was 116 µM.
